Assay [1] concerns T lymphocytes. The experiment in a line: Bleomycin-induced CD8 T-lymphocyte apoptosis, treatment from the start of blood cell culture (at least 50 hours contact), flow cytometry. In kind it is cell-based, human. Conditions: for T lymphocytes apoptosis rate, from the start of cell culture: same blood sample, 8 Gy irradiation control 28.2%. On the procedure: (§1) Blood samples were purchased from Etablissement Français du Sang (EFS) with the convention number 21PLER2016-0100 AV01. Blood samples were collected from healthy donors in 5 mL heparinized tubes without separation gel.
(§2) Blood cells were grown in RPMI-1640 with glutamax (Fisher scientific, France) supplemented with 20% fetal calf serum (FCS) (EuroBio, France). Cells were maintained at 37° C. with 5% CO2 during the experiments.
(§3) Bleomycin (EuroMedex) was solubilized in sterile MilliQ water at 50 mg/mL according to manufacturer instructions and stored at −80° C.
(§4) Samples were then centrifuged for 5 min at 300 g. The pellets were resuspended in phosphate-buffered saline (PBS) containing 10 μl of anti-human CD8-FITC antibody (Becton Dickinson, USA) and incubated for 20 minutes at room temperature. Then, red blood cells were lysed by addition of 4 ml of lysis buffer diluted 1:10 in water (Becton Dickinson, USA). After another 20 minutes incubation time at room temperature, samples were centrifuged for 5 min at 300 g and the pellets were washed with 3 ml of PBS. Pellets were suspended in 200 μl of PBS containing 25 μg/ml of propidium iodide (Sigma, France) and 5 μl of RNAse A at 10 mg/ml (Qiagen, France). The samples were analyzed by flow cytometry within the next hours, using the CytoFlex (Beckman Coulter, USA). […]
Two hundred microliters of blood were aliquoted into a 6-well plate containing 2 mL of RPMI-20% FCS-bleomycin, about 24 hours after blood collection. The cell culture media containing the different concentrations of bleomycin were made fresh just before starting the cell culture. After bleomycin incubation with blood cells for at least 50 hours (generally more than about 60 hours, in particular between 65 and 75 hours), samples were stained for flow cytometry analysis as described above.
(§5) Two treatment conditions were tested on the same blood sample: blood cells were treated by several bleomycin concentrations 24 hours after cell culture or from the start of cell culture. A control experiment was performed by irradiating blood samples at 8 Gy.
Background: Flow cytometry measures light scatter and fluorescence of single cells or particles in a stream.

Assay [2] concerns T lymphocytes. As to the kind of experiment: Bleomycin-induced CD8 T-lymphocyte apoptosis, treatment 24 hours after blood cell culture (less than 50 hours contact), flow cytometry. Particulars: for T lymphocytes apoptosis rate, 24 hours after cell culture: staining 48 hours after treatment, same blood sample, 8 Gy control 28.2%. In kind it is cell-based, human. On the procedure: as §1, §2, §3, §4
Two hundred microliters of blood were aliquoted into a 6-well plate containing 2 mL of RPMI-20% FCS, about 24 hours after blood collection. Bleomycin treatment, at the different concentrations, was performed 24 hours after blood cell culture by adding the Bleomycin directly into the wells. The staining for detecting apoptosis was performed as described above and 48 hours after the bleomycin treatment (thus, after less than 50 hours of contact of bleomycin with the cells). • Treatment during blood cell culture:
as §5

For Bleomycin, the “T lymphocytes apoptosis rate, from the start of cell culture” value stood at 12.47% in assay [1] (bleomycin 50 μg/mL); 19.14% in assay [1] (bleomycin 100 μg/ml); 23.44% in assay [1] (bleomycin 200 μg/ml); 26.32% in assay [1] (bleomycin 300 μg/ml); 30.68% in assay [1] (bleomycin 400 μg/ml). Further, the “Bleomycin concentration achieving the apoptosis rate obtained after 8 Gy irradiation” value in assay [1] (treatment applied at the start of blood cell culture) was “lower than 300 μg/ml”. The “T lymphocytes apoptosis rate, 24 hours after cell culture” value is reported as 3.98% in assay [2] (bleomycin 50 μg/mL); 2.72% in assay [2] (bleomycin 100 μg/ml); 10.13% in assay [2] (bleomycin 200 μg/ml); 11.9% in assay [2] (bleomycin 300 μg/ml); 16.78% in assay [2] (bleomycin 400 μg/ml). Besides, the “Whether the apoptosis rate observed after 8 Gy irradiation is induced” value in assay [2] (treatment 24 hours after blood cell culture, applied for less than 50 hours, 50 to 500 μg/mL) was “no bleomycin concentration, applied for less than 50 hours, induces the apoptosis rate observed after 8 Gy irradiation”.

Values taken from patent US11747325B2, “Bleomycin for mimicking the effect of ionizing radiations on T cells” (Novagray, priority 2018, dated 2023).
